Patent US7625910B2, “Co-crystal” (AstraZeneca AB, priority 2006, dated 2009)

Experiments:
[1] = pro-drug conversion in human plasma; format: in vitro ADME
[2] = tested on: human colorectal (SW620, HCT116, Colo205) and lung (A549, Calu-6) tumour xenografts; experiment: tumour growth inhibition in human tumour xenografts; format: in vivo; settings: panel of human colorectal (SW620, HCT116, Colo205) and lung (A549, Calu-6) tumour xenografts; with statistical significance
Dynamic Vapour Sorption = format: physicochemical; settings: 25° C.; for hygroscopicity: 0-95% RH, two cycles, batches from Method 1 and Method 2 (FIGS. 4 and 5)
Experimental: Analytical Instrument: Surface Measurements Systems Dynamic Vapour Sorption Analyser. About 5 mg of material contained in a quartz holder at a specified temperature was subjected to humidified nitrogen at a flow rate of 200 ml/minute of nitrogen at 25° C. at the following relative humidities (RH): 0, 20, 40, 60, 80, 95, 80, 60, 40, 20, 0% RH in duplicate. The weight of the material at a particular relative humidity was monitored until it was stable according to a weight criteria of 0.002% weight change per minute averaged over 10 minutes. If the weight was still changing then it stayed at a particular relative humidity until the weight was stable (up to a maximum time of 12 hours).

Compound	conversion of pro-drug to active moiety AZD1152 HQPA [1]	inhibition of tumour growth [2]	level of water (hydration state) with relative humidity (Dynamic Vapour Sorption; 0-95% RH (FIG. 6), dehydrated to tetrahydrated state and higher)	hygroscopicity (Dynamic Vapour Sorption)	hygroscopicity (Dynamic Vapour Sorption; listed as maleate co-crystal of AZD1152)
CCN(CCCOc1ccc2c(Nc3cc(CC(=O)Nc4cccc(F)c4)n[nH]3)ncnc2c1)CCOP(=O)(O)O [AZD1152, 2-{ethyl[3-({4-[(5-{2-[(3-fluorophenyl)amino]-2-oxoethyl}-1H-pyrazol-3-yl)amino]quinazolin-7-yl}oxy)propyl]amino}ethyl dihydrogen phosphate]	rapidly and completely converted	inhibit tumour growth	quite variable depending on the relative humidity of storage		
CCN(CCCOc1ccc2c(Nc3cc(CC(=O)Nc4cccc(F)c4)[nH]n3)ncnc2c1)CCOP(=O)(O)O.O=C(O)/C=C\C(=O)O [AZD1152 maleate co-crystal, 2-{ethyl[3-({4-[(5-{2-[(3-fluorophenyl)amino]-2-oxoethyl}-1H-pyrazol-3-yl)amino]quinazolin-7-yl}oxy)propyl]amino}ethyl dihydrogen phosphate.maleate]				non-hygroscopic	substantially non-hygroscopic
